This note sets out measurements from US8080657B2, “Compounds of reverse turn mimetics and the use thereof” (Choongwae Pharma Corporation, priority 2008, dated 2011).

Structures are written as SMILES.

One assay deals with Wnt signaling. As to the kind of experiment: TopFlash reporter gene bioassay in SW480 cells. Type of assay: cell-based. To be noted: Homo sapiens, SW480, TopFlash reporter gene assay, inhibition of Wnt signaling; read-out: RGA, IC50 (μM) TopF. On the technique in general: In a reporter assay the amount or activity of a reporter protein is the signal.
In the case of `C=CCN1CC(=O)N2[C@@H](Cc3ccc(O)cc3)C(=O)N(Cc3cccc4c3nc(C(F)(F)F)n4C)C[C@@H]2N1C(=O)NCc1ccccc1` [compound 93], the IC50 worked out at 1.07 ± 0.2 µM.

For `C=CCN1CC(=O)N2[C@@H](Cc3ccc(O)cc3)C(=O)N(Cc3csc4cc(NC(=O)OC)ccc34)C[C@@H]2N1C(=O)NCc1ccccc1` [compound 45], the 50% inhibitory concentration (IC50) was 0.67 ± 0.09 µM.

`C=CCN1CC(=O)N2[C@@H](Cc3ccc(ON)cc3)C(=O)N(Cc3ccc(OC)c(Cl)c3)C[C@@H]2N1C(=O)NCc1ccccc1` [compound 147]: the IC50 stood at 1.99 ± 0.32 µM.

For `C=CCN1CC(=O)N2[C@@H](Cc3ccc(O)cc3)C(=O)N(Cc3cn(C)c4ccccc34)C[C@@H]2N1C(=O)NCc1ccccc1` [compound 67], the IC50 was determined as 0.85 ± 0.089 µM.

As for `C=CCN1CC(=O)N2[C@@H](Cc3ccc(O)cc3)C(=O)N(Cc3ccnc(C(N)=O)c3)C[C@@H]2N1C(=O)NCc1ccccc1` [compound 153], the IC50 worked out at 10.8 ± 1.97 µM.

Turning to `C=CCN1CC(=O)N2[C@@H](Cc3ccc(O)cc3)C(=O)N(Cc3cccc(C(=O)NCc4cccs4)c3)C[C@@H]2N1C(=O)NCc1ccccc1` [compound 53], the IC50 was 0.73 ± 0.03 µM.

As for `C=CCN1CC(=O)N2[C@@H](Cc3ccc(O)cc3)C(=O)N(Cc3cccc(C(=O)N(C)C)c3)C[C@@H]2N1C(=O)NCc1ccccc1` [compound 240], the IC50 stood at 5.41 ± 0.89 µM.

As to `C=CCN1CC(=O)N2[C@@H](Cc3ccc(O)cc3)C(=O)N(Cc3cccc4c3oc3ccccc34)C[C@@H]2N1C(=O)NCc1ccccc1` [compound 26], the IC50 is 0.52 ± 0.048 µM.

In the case of `C=CCCNC(=O)c1cccc(CN2C[C@H]3N(C(=O)CN(CC=C)N3C(=O)NCc3ccccc3)[C@@H](Cc3ccc(O)cc3)C2=O)c1` [compound 76], the IC50 came out at 0.94 ± 0.04 µM.

Consider `C=CCN1CC(=O)N2[C@@H](Cc3ccc(O)cc3)C(=O)N(Cc3cccnc3C3CC3)C[C@@H]2N1C(=O)NCc1ccccc1` [compound 108], for which the IC50 was 1.31 ± 0.33 µM.

For `C=CCN1CC(=O)N2[C@@H](Cc3ccc(O)cc3)C(=O)N(Cc3cc(C(C)(C)C)cc(C(C)(C)C)c3)C[C@@H]2N1C(=O)NCc1ccccc1` [compound 163], the IC50 was determined as 15.7 ± 1.87 µM.

In the case of `C=CCN1CC(=O)N2[C@@H](Cc3ccc(O)cc3)C(=O)N(Cc3ccc(F)c4scnc34)C[C@@H]2N1C(=O)NCc1ccc(F)c(F)c1` [compound 80], the IC50 was found to be 0.96 ± 0.13 µM.

For `C=CCN1CC(=O)N2[C@@H](Cc3ccc(O)cc3)C(=O)N(Cc3cccc(C(=O)NC4CCCCC4)c3)C[C@@H]2N1C(=O)NCc1ccccc1` [compound 38], the IC50 came to 0.61 ± 0.09 µM.

Turning to `C=CCN1CC(=O)N2[C@@H](Cc3ccc(O)cc3)C(=O)N(Cc3cccc(-c4cccc(N)c4)c3)C[C@@H]2N1C(=O)NCc1ccccc1` [compound 82], the half-inhibitory concentration (IC50) amounted to 0.99 ± 0.14 µM.

With `C=CCN1CC(=O)N2[C@@H](Cc3ccc(O)cc3)C(=O)N(Cc3ccnc(-c4ccccc4)n3)C[C@@H]2N1C(=O)NCc1ccccc1` [compound 176], the concentration for half-maximal inhibition (IC50) was 2.37 ± 0.22 µM.

For `C=CCN1CC(=O)N2[C@@H](Cc3ccc(O)cc3)C(=O)N(Cc3cccc(-c4cccc(C#N)c4)c3)C[C@@H]2N1C(=O)NCc1ccccc1` [compound 126], the IC50 came out at 1.58 ± 0.27 µM.

Take `C=CCN1CC(=O)N2[C@@H](Cc3ccc(O)cc3)C(=O)N(Cc3cccc(-c4ccc(OC)cc4)n3)C[C@@H]2N1C(=O)NCc1ccccc1` [compound 134]: the IC50 is 1.73 ± 0.35 µM.

On to `C=CCN1CC(=O)N2[C@@H](Cc3ccc(O)cc3)C(=O)N(Cc3csc4c(N)cccc34)C[C@@H]2N1C(=O)NCc1ccccc1` [compound 206], for which the IC50 was 3.18 ± 0.75 µM.

Regarding `C=CCN1CC(=O)N2[C@@H](Cc3ccc(O)cc3)C(=O)N(Cc3ccc(F)c4scnc34)C[C@@H]2N1C(=O)NCc1ccc(C#N)cc1` [compound 255], the IC50 came to 7.17 ± 1.33 µM.

In the case of `C=CCN1CC(=O)N2C(CN(Cc3cccc(C#CC(C)(C)C)n3)C(=O)[C@@H]2Cc2ccc(O)cc2)N1C(=O)NCc1ccccc1` (some centres unmarked) [compound 116], the IC50 was 1.43 ± 0.26 µM.

`C=CCN1CC(=O)N2[C@@H](Cc3ccc(O)cc3)C(=O)N(Cc3ccccc3N3CCCC3)C[C@@H]2N1C(=O)NCc1ccccc1` [compound 96]: the IC50 was 1.11 ± 0.25 µM.

Take `C=CCN1CC(=O)N2[C@@H](Cc3ccc(O)cc3)C(=O)N(Cc3cccc(-c4ccc[nH]c4=O)c3)C[C@@H]2N1C(=O)NCc1ccccc1` [compound 156]: the IC50 is 12.2 ± 2.02 µM.

Regarding `C=CCN1CC(=O)N2[C@@H](Cc3ccc(O)cc3)C(=O)N(Cc3csc4ccc(NC(C)=O)cc34)C[C@@H]2N1C(=O)NCc1ccccc1` [compound 85], the IC50 amounted to 1 ± 0.22 µM.

`C=CCN1CC(=O)N2[C@@H](Cc3ccc(O)cc3)C(=O)N(Cc3csc4cc(NC(N)=O)ccc34)C[C@@H]2N1C(=O)NCc1ccccc1` [compound 201]: the IC50 amounted to 26.1 ± 7.1 µM.

For `C=CCN1CC(=O)N2[C@@H](Cc3ccc(O)cc3)C(=O)N(Cc3cccc(C(=O)NCC4CCCCC4)c3)C[C@@H]2N1C(=O)NCc1ccccc1` [compound 101], the IC50 is 1.24 ± 0.07 µM.

Turning to `C=CCN1CC(=O)N2[C@@H](Cc3ccc(O)cc3)C(=O)N(Cc3csc4ccc(NC(N)=O)cc34)C[C@@H]2N1C(=O)NCc1ccccc1` [compound 195], the IC50 worked out at 20.9 ± 3.94 µM.

As for `C=CCN1CC(=O)N2[C@@H](Cc3ccc(O)cc3)C(=O)N(Cc3csc4ccc(N)cc34)C[C@@H]2N1C(=O)NCc1ccccc1` [compound 100], the IC50 worked out at 1.21 ± 0.14 µM.

For `C=CCN1CC(=O)N2[C@@H](Cc3ccc(O)cc3)C(=O)N(Cc3csc4ccc(F)cc34)C[C@@H]2N1C(=O)NCc1ccccc1` [compound 21], the IC50 came to 0.45 ± 0.05 µM.

As to `C=CCN1CC(=O)N2[C@@H](Cc3ccc(O)cc3)C(=O)N(Cc3cccc4ccn(-c5ccccn5)c34)C[C@@H]2N1C(=O)NCc1ccccc1` [compound 187], the IC50 was 2.67 ± 0.28 µM.

Consider `C=CCOc1ccc(CN2C[C@H]3N(C(=O)CN(CC=C)N3C(=O)NCc3ccccc3)[C@@H](Cc3ccc(O)cc3)C2=O)cc1` [compound 123], for which the IC50 was determined as 1.55 ± 0.21 µM.

With `C=CCN1CC(=O)N2[C@@H](Cc3ccc(O)cc3)C(=O)N(Cc3cccc(C(=O)NCCCOCCCC)c3)C[C@@H]2N1C(=O)NCc1ccccc1` [compound 135], the IC50 amounted to 1.77 ± 0.15 µM.

Take `C=CCN1CC(=O)N2[C@@H](Cc3ccc(O)cc3)C(=O)N(Cc3cccc4[nH]cnc34)C[C@@H]2N1C(=O)NCc1ccccc1` [compound 49]: the IC50 was determined as 0.71 ± 0.43 µM.

As for `C=CCN1CC(=O)N2[C@@H](Cc3ccc(O)cc3)C(=O)N(Cc3ccc(F)c4scnc34)C[C@@H]2N1C(=O)NCc1ccccc1F` [compound 158], the IC50 was determined as 12.5 ± 2.66 µM.

Turning to `C=CCN1CC(=O)N2[C@@H](Cc3ccc(O)cc3)C(=O)N(Cc3ccc(OCCCCC)cc3)C[C@@H]2N1C(=O)NCc1ccccc1` [compound 154], the IC50 was determined as 11.8 ± 0.9 µM.

Still in this assay, the particulars now being: Homo sapiens, SW480, read-out: RGA, IC50 (μM) TopF.
`C=CCN1CC(=O)N2[C@@H](Cc3ccc(O)cc3)C(=O)N(Cc3csc4c([N+](=O)[O-])cccc34)C[C@@H]2N1C(=O)NCc1ccccc1` [compound 148]: the IC50 was 10 ± 1.7 µM.

Staying with this assay, now noted: Homo sapiens, SW480; read-out: RGA, IC50 (μM) TopF.
Turning to `C=CCN1CC(=O)N2[C@@H](Cc3ccc(O)cc3)C(=O)N(Cc3csc4ccc(NC=O)cc34)C[C@@H]2N1C(=O)NCc1ccccc1` [compound 185], the half-maximal inhibitory concentration (IC50) stood at 2.61 ± 0.19 µM.

On to `C=CCN1CC(=O)N2[C@@H](Cc3ccc(O)cc3)C(=O)N(Cc3cccc(C(=O)NCCC)c3)C[C@@H]2N1C(=O)NCc1ccccc1` [compound 9], for which the IC50 was determined as 0.3 ± 0.02 µM.

Turning to `C=CCN1CC(=O)N2[C@@H](Cc3ccc(OP(=O)(O)O)cc3)C(=O)N(Cc3ccccc3SC)C[C@@H]2N1C(=O)NCc1ccccc1` [compound 42], the IC50 stood at 0.66 ± 0.0079 µM.

One may read the IC50 as the concentration needed to halve the response being measured.
